Columns and labels:
[1] = tested on: C57BL mice; experiment: Toxicity study, single administration into the caudal vein; assay type: in vivo; conditions: for Mortality: 0.03, 0.3, 3 mg/kg i.v., mice, 14 days observation; for Body weights: 0.03-3 mg/kg i.v., days 1, 3, 7 and 14 after dosing; for General condition starting on the day after dosing: all dose groups, day after dosing through day 14
Protocol: The test compound solutions were administered into the caudal vein at the rate of about 5 ml per minute. […] In addition, body weights were measured immediately before dosing and on days 1, 3, 7 and 14 after dosing.

[2] = tested on: Wistar rats; experiment: Measurement of blood pressure lowering action (blood pressure and heart rate after intravenous injection without anesthesia); assay type: in vivo; set-up: Blood pressure (mmHg, ± standard error): unit not given here; conditions: for Blood pressure (mmHg, ± standard error): 0 min. value assigned 100
Protocol: Thirty five, male Wistar rats.
Cannulas were inserted into the left carotid artery for measuring blood pressure, and into the left jugular vein for intravenous injection of the test compounds, respectively. After being housed normally in their cages overnight following surgery, the animals were injected with the test solutions without anesthesia. Blood pressure and heart rate were measured immediately before dosing (0 minutes) and at 5, 30, 60, 120 and 240 minutes after dosing. The blood pressure at 0 minutes for each animals was assigned a value of 100, and measured values of blood pressure at each time were then normalized based on that value.

[3] = tested on: Alzheimer's dementia animal model by continuous intraventricular infusion of β protein; experiment: Step-through passive evasion test in rats with continuous intraventricular infusion of β-amyloid protein (learning and memory ability improvement effect); assay type: in vivo, Wistar rats
Source text: A step-through passive evasive reaction apparatus composed of two chambers separated by a guillotine door, was used for the experimental apparatus. Namely, one of the chambers was a bright chamber composed of clear acrylic boards (floor: 15 cm×25 cm, height: 15 cm) while the other chamber was a dark chamber (of the same size) composed of black acrylic boards. In addition, stainless steel grids having a diameter of 4 mm were provided at intervals of 15 mm on the floor of the dark room, and connected to a shock generator for applying an electric shock. To begin with, after opening the guillotine door and allowing to freely explore the inside of the apparatus for 1 minute, the door was closed, the rat was placed in the bright chamber as an acquisition trial and the door was opened 30 seconds later. The door was closed after all four limbs of the rat entered the dark chamber followed immediately by the application of an electric shock. […] As a retention trial conducted 24 hours after the acquisition trial, the rat was placed in the bright chamber and the amount of time until all four limbs entered the dark chamber after the guillotine door was opened 30 seconds later was measured (step-through latency). […] The learning and memory ability improvement action of test compound A was measured using the evaluation methods of Reference Examples 1 and 2. […]

[4] = 0.03 mg/kg i.v., 5 min. after dosing
[5] = 0.03 mg/kg i.v., 30 min. after dosing
[6] = 0.03 mg/kg i.v., 60 min. after dosing
[7] = 0.03 mg/kg i.v., 2 hr. after dosing
[8] = 0.03 mg/kg i.v., 4 hr. after dosing
[9] = 0.3 mg/kg i.v., 5 min. after dosing
[10] = 0.3 mg/kg i.v., 30 min. after dosing
[11] = 0.3 mg/kg i.v., 60 min. after dosing
[12] = 0.3 mg/kg i.v., 2 hr. after dosing
[13] = 0.3 mg/kg i.v., 4 hr. after dosing
[14] = 3 mg/kg i.v., 5 min. after dosing
[15] = 3 mg/kg i.v., 30 min. after dosing
[16] = 3 mg/kg i.v., 60 min. after dosing
[17] = 3 mg/kg i.v., 2 hr. after dosing
[18] = 3 mg/kg i.v., 4 hr. after dosing

Row | SMILES | Mortality [1] | Body weights [1] | General condition starting on the day after dosing [1] | Blood pressure (mmHg, ± standard error) [2, 4] | Blood pressure (mmHg, ± standard error) [2, 5] | Blood pressure (mmHg, ± standard error) [2, 6] | Blood pressure (mmHg, ± standard error) [2, 7] | Blood pressure (mmHg, ± standard error) [2, 8] | Blood pressure (mmHg, ± standard error) [2, 9] | Blood pressure (mmHg, ± standard error) [2, 10] | Blood pressure (mmHg, ± standard error) [2, 11] | Blood pressure (mmHg, ± standard error) [2, 12] | Blood pressure (mmHg, ± standard error) [2, 13] | Blood pressure (mmHg, ± standard error) [2, 14] | Blood pressure (mmHg, ± standard error) [2, 15] | Blood pressure (mmHg, ± standard error) [2, 16] | Blood pressure (mmHg, ± standard error) [2, 17] | Blood pressure (mmHg, ± standard error) [2, 18] | further results
1 | COC(=O)CCCCC1=C[C@H]2C[C@@H](O)[C@H](/C=C/CCc3cccc(C)c3)[C@H]2C1 [Test compound C, 15-deoxy-16-(m-tolyl)-17,18,19,20-tetranorisocarbacycline methyl ester] | none of the animals died | no significant fluctuations | no abnormalities observed in any of the groups | – | – | – | – | – | – | – | – | – | – | – | – | – | – | – | General condition on the day of dosing ([1]; all dose groups (0.03, 0.3, 3 mg/kg i.v.)): no abnormalities observed in any of the groups
2 | COC(=O)CCCCC1=C[C@H]2C[C@@H](O)[C@H](/C=C/[C@@H](O)Cc3cccc(C)c3)[C@H]2C1 [Comparative Test Compound D, (15S)-16-(m-tolyl)-17,18,19,20-tetranorisocarbacycline methyl ester, reference compound] | – | – | – | 88.9 | 92.1 | 96.5 | 97.3 | 99.0 | 49.6 | 78.5 | 94.4 | 93.3 | 99.3 | 55.0 | 60.0 | 81.1 | 103.8 | 115.4 | Duration of decreased blood pressure ([2]; 3 mg/kg and 0.3 mg/kg dose groups, i.v.): ≥ 30 min
3 | Cc1cccc(C[C@@H](O)/C=C/[C@H]2[C@H](O)CC3C=C(CCCCC(=O)O)C[C@@H]32)c1 (stereo partly drawn) [Test compound A, (15R)-16-(m-tolyl)-17,18,19,20-tetranorisocarbacycline] | – | – | – | – | – | – | – | – | – | – | – | – | – | – | – | – | – | – | Time until moved to dark chamber during retention trial Mean ± standard error ([3]; β-amyloid protein (1-42) 300 pmol/day + test compound 1.2 fmol/day, intraventricular osmotic pump, max observation 300 sec): 265.7 ± 32.6 (n = 6) sec.; Learning and memory ability improvement action ([3]; β-amyloid protein (1-42) infused rats, overall conclusion): improved learning and memory ability
4 | COC(=O)CCCCC1=C[C@H]2C[C@@H](O)[C@H](/C=C/[C@H](O)Cc3cccc(C)c3)[C@H]2C1 [Test compound B, (15R)-16-(m-tolyl)-17,18,19,20-tetranorisocarbacycline methyl ester] | none of the animals died | no significant fluctuations | no abnormalities observed in any of the groups | 105.8 | 103.4 | 103.6 | 104.5 | 100.5 | 92.9 | 97.7 | 97.7 | 98.5 | 98.0 | mild decrease | 99.4 | 101.9 | 102.7 | 101.0 | Time until decreased movement disappeared after dosing ([1]; 3 mg/kg dose group, i.v.): ≤ 30 min; General condition on the day of dosing ([1]; 3 mg/kg dose group, i.v., starting immediately after dosing): decreased movement; Blood pressure change immediately after dosing ([2]; 3 mg/kg dose group, i.v.): decrease in blood pressure; Heart rate change immediately after dosing ([2]; 3 mg/kg dose group, i.v.): increase in heart rate; Time after dosing at which blood pressure and heart rate returned to normal ([2]; 3 mg/kg dose group, i.v.): 30 min; Blood pressure (mmHg, ± standard error) ([2]; 3 mg/kg i.v., 5 min. after dosing, listed as Test comp. B): 80.4; Fluctuations in blood pressure and heart rate ([2]; 0.3 and 0.03 mg/kg dose groups, i.v.): no significant fluctuations; Effect on the circulatory system (overall conclusion) ([2]; rats, i.v. 0.03-3 mg/kg): extremely mild effect
